Data on 19 compounds can be found in patent publication US20260217708A1, “FUSED BENZAZEPINE DERIVATIVES FOR USE IN THE TREATMENT OF CANCER AND EPILEPSY” (UCB BIOPHARMA SRL, priority 2023, published 2026).

Some results are limits rather than exact numbers.

Experiment [1] addresses T1, system Xc^− (Homo sapiens, UniProt Q9UPY5).
T1 sequence (Q9UPY5 1-501): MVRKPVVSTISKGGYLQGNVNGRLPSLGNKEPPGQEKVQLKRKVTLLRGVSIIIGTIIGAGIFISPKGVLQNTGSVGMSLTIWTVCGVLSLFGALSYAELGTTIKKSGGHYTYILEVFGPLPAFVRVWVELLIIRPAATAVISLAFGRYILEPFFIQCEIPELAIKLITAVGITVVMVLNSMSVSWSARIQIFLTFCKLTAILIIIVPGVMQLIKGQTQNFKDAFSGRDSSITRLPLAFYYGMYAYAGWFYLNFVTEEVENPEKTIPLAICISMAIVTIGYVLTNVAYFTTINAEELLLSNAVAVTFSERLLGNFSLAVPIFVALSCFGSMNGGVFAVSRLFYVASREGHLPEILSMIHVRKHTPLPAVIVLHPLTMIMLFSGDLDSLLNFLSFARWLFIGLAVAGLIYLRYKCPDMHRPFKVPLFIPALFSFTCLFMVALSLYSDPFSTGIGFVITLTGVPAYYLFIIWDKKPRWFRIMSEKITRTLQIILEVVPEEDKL
T1 sequence (P08195 1-529 partner): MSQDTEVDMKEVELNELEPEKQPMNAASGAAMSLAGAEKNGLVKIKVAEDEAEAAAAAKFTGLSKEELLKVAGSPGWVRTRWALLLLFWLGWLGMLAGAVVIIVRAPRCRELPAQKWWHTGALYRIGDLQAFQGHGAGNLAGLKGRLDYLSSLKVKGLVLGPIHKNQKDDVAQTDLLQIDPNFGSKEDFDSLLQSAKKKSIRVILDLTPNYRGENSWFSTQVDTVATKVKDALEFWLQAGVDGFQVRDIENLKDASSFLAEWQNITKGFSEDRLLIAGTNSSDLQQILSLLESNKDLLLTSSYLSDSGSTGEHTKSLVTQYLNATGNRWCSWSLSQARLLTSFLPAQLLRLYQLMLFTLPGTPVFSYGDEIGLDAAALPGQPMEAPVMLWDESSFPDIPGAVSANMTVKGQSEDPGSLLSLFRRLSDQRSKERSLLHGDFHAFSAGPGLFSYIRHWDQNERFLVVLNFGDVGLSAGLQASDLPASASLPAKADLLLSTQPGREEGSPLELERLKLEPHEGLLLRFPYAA
In words: [^14C]L-Cystine uptake assay. The class given is cell-based. Also noted: endogenous in cells; host or cells: H4 cells. Particulars: H4 cells, sodium-free HEPES buffer, 0.5 μM L-[14C]Cystine and 4.5 μM L-Cystine, 1 hour at 37° C.; read-out: pIC50 [^14C] L-Cystine uptake assay (converted). Put shortly: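 Compound effect is given as pIC50, taken between controls of 1% DMSO and 50 μM Erastin. Human H4 cells were pretreated 15 min with compound in sodium-free buffer, then took up 0.5 μM [14C]cystine with 4.5 μM cold cystine for 1 hour at 37° C, read by scintillation proximity counting.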

Experiment [2] deals with T1, system Xc^−. In words: Cystine-induced glutamate release assay. In kind it is cell-based. Also noted: endogenous in cells; host or cells: H4 cells. Particulars: H4 cells, sodium-free HEPES buffer, 50 μM L-Cystine, 2 hours, Amplex Red glutamate readout; read-out: pIC50 Cystine-induced glutamate release assay (converted). Put shortly: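 IC50 (reported as pIC50) normalized to DMSO 1% and Erastin 50 μM controls, from Amplex Red fluorescence of glutamate exported into supernatant. H4 cells were washed into sodium-free buffer to exclude EAAT transport, then given compound with 50 μM L-cystine for 2 h in the incubator.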

With `Cc1cc2c(c(F)n1)-c1cccnc1[C@@H](C)C(=O)N2CC(=O)Nc1ccc(F)c(F)c1` [#140, N-(3,4-difluorophenyl)-2-[(10R)-3-fluoro-5,10-dimethyl-9-oxo-4,8,12-triazatricyclo[9.4.0.0^2,7]pentadeca-1(11),2(7),3,5,12,14-hexaen-8-yl]acetamide], the IC50 on system Xc^− [1] and on system Xc^− [2] was 15.8 to 39.8 nM in each case.

For the compound `COc1nc(C)cc2c1-c1ccnn1CC(=O)N2CC(=O)Nc1ccc(C(F)(F)F)cc1` [#99, 2-(14-methoxy-12-methyl-8-oxo-5,6,9,13-tetrazatricyclo[8.4.0.0^2,6]tetradeca-1(14),2,4,10,12-pentaen-9-yl)-N-[4-(trifluoromethyl)phenyl]acetamide], the IC50 on system Xc^− [1] was 100 to 501 nM; on system Xc^− [2], 39.8 to 100 nM.

For `COc1nc(OC(F)F)cc2c1-c1cccnc1C(C)C(=O)N2CC(=O)Nc1ccc(C(F)F)cc1` (single isomer, unassigned) [#329, 2-[5-(difluoromethoxy)-3-methoxy-10-methyl-9-oxo-4,8,12-triazatricyclo[9.4.0.0^2,7]pentadeca-1(15),2(7),3,5,11,13-hexaen-8-yl]-N-[4-(difluoromethyl)phenyl]acetamide], the IC50 at system Xc^− [1] and on system Xc^− [2] was 15.8 to 39.8 nM each time.

Regarding `Cc1cc2c(c(F)n1)-c1cncc(F)c1CC(=O)N2CC(=O)Nc1ccc(C(F)(F)F)cc1` [#212, 2-(3,12-difluoro-5-methyl-9-oxo-4,8,14-triazatricyclo[9.4.0.0^2,7]pentadeca-1(11),2(7),3,5,12,14-hexaen-8-yl)-N-[4-(trifluoromethyl)phenyl]acetamide], the IC50 is 15.8 to 39.8 nM at system Xc^− [1] and 100 to 501 nM on system Xc^− [2].

As to `Cc1cc2c(cn1)-c1ccc(Cl)cc1C(C)C(=O)N2CC(=O)Nc1ccc(C(F)F)cc1` (single isomer, unassigned) [#396, 2-[9-chloro-3,7-dimethyl-6-oxo-7H-pyrido[3,4-a][3]benzazenin-5-yl]-N-[4-(difluoromethyl)phenyl]acetamide], the IC50 at system Xc^− [1] and at system Xc^− [2] was 15.8 to 39.8 nM each time.

Consider `N#Cc1cc2c(cc1F)-c1cccnc1CC(=O)N2CC(=O)Nc1ccc(C(F)(F)F)cc1` [#69, 2-(9-cyano-10-fluoro-6-oxo-5H-pyrido[2,3-d][1]benzazepin-7-yl)-N-[4-(trifluoromethyl)-phenyl]acetamide], for which the figures for the IC50 on system Xc^− [1] and at system Xc^− [2] were 15.8 to 39.8 nM and 39.8 to 100 nM, respectively.

Turning to `Cc1cc2c(c(F)n1)-c1cccnc1[C@@H](C)C(=O)N2CC(=O)Nc1ccc2c(cnn2C(F)F)c1` [#148, N-[1-(difluoromethyl)indazol-5-yl]-2-[(10R)-3-fluoro-5,10-dimethyl-9-oxo-4,8,12-triazatricyclo[9.4.0.0^2,7]pentadeca-1(11),2(7),3,5,12,14-hexaen-8-yl]acetamide], the IC50 on system Xc^− [1] is 15.8 to 39.8 nM; on system Xc^− [2], 39.8 to 100 nM.

Take `Cc1cc2c(cn1)-c1cc(F)cnc1C(C)C(=O)N2CC(=O)Nc1ccc(C(F)F)cc1` (single isomer, unassigned) [#328, N-[4-(difluoromethyl)phenyl]-2-[14-fluoro-5,10-dimethyl-9-oxo-4,8,12-triazatricyclo[9.4.0.0^2,7]pentadeca-1(15),2,4,6,11,13-hexaen-8-yl]acetamide]: the IC50 was 15.8 to 39.8 nM at system Xc^− [1] and < 15.8 nM at system Xc^− [2].

As to `Cc1cc2c(c(F)n1)-c1cc(F)cnc1CC(=O)N2CC(=O)Nc1ccc(C(F)(F)F)cc1` [#391, 2-(3,14-difluoro-5-methyl-9-oxo-4,8,12-triazatricyclo[9.4.0.0^2,7]pentadeca-1(15),2(7),3,5,11,13-hexaen-8-yl)-N-[4-(trifluoromethyl)phenyl]acetamide], the values for the IC50 at system Xc^− [1] and on system Xc^− [2] were 15.8 to 39.8 nM and 100 to 501 nM, respectively.

`O=C(CN1C(=O)Cc2ccccc2-c2cnc(Cl)cc21)Nc1ccc(C(F)(F)F)cc1` [#13, 2-(3-chloro-6-oxo-7H-pyrido[4,3-d][3]benzazepin-5-yl)-N-[4-(trifluoromethyl)phenyl]acetamide]: the IC50 is 39.8 to 100 nM on system Xc^− [1] and 100 to 501 nM at system Xc^− [2].

As for `N#Cc1ccc2c(c1F)-c1cccnc1CC(=O)N2CC(=O)Nc1ccc(C(F)(F)F)cc1` [#54, 2-(10-cyano-11-fluoro-6-oxo-5H-pyrido[2,3-d][1]benzazepin-7-yl)-N-[4-(trifluoromethyl)-phenyl]acetamide], the IC50 at system Xc^− [1] is 39.8 to 100 nM; at system Xc^− [2] it was 100 to 501 nM.

For the compound `Cc1ccc(NC(=O)CN2C(=O)Cc3cccnc3-c3cnc(Cl)cc32)cc1Cl` [#18, N-(3-chloro-4-methyl-phenyl)-2-(13-chloro-9-oxo-3,10,14-triazatricyclo[9.4.0.0^2,7]pentadeca-1(11),2(7),3,5,12,14-hexaen-10-yl)acetamide], the IC50 at system Xc^− [1] and on system Xc^− [2] was 100 to 501 nM each time.

As for `COc1nc(C)cc2c1-c1cc(C)nn1CC(=O)N2CC(=O)Nc1ccc(C(F)(F)F)cc1` [#104, 2-(14-methoxy-4,12-dimethyl-8-oxo-5,6,9,13-tetrazatricyclo[8.4.0.0^2,6]tetradeca-1(14),2,4,10,12-pentaen-9-yl)-N-[4-(trifluoromethyl)phenyl]acetamide], the IC50 at system Xc^− [1] and at system Xc^− [2] was 39.8 to 100 nM in each case.

As for `Cc1cc2c(c(Cl)n1)-c1cccnc1C(F)C(=O)N2CC(=O)Nc1ccc(C(F)(F)F)cc1` (single isomer, unassigned) [#188, enantiomer (10R) or (10S) of 2-[3-chloro-10-fluoro-5-methyl-9-oxo-4,8,12-triazatricyclo[9.4.0.0^2,7]pentadeca-1(11),2(7),3,5,12,14-hexaen-8-yl]-N-[4-(trifluoromethyl)phenyl]acetamide], the IC50 on system Xc^− [1] and at system Xc^− [2] was < 15.8 nM each time.

With `CN1CC(c2cc3c(c(Cl)n2)-c2cccnc2CC(=O)N3CC(=O)Nc2ccc(C(F)(F)F)cc2)C1` [#170, 2-[3-chloro-5-(1-methylazetidin-3-yl)-9-oxo-4,8,12-triazatricyclo[9.4.0.0^2,7]pentadeca-1(11),2(7),3,5,12,14-hexaen-8-yl]-N-[4-(trifluoromethyl)phenyl]acetamide], the IC50 at system Xc^− [1] and on system Xc^− [2] was 39.8 to 100 nM each time.

In the case of `CC1C(=O)N(CC(=O)Nc2ccc(C(F)F)cc2)c2cc(N3CC4(COC4)C3)nc(F)c2-c2cccnc21` (single isomer, unassigned) [#284, N-[4-(difluoromethyl)phenyl]-2-[3-fluoro-10-methyl-5-(2-oxa-6-azaspiro[3.3]heptan-6-yl)-9-oxo-4,8,12-triazatricyclo[9.4.0.0^2,7]pentadeca-1(15),2,4,6,11,13-hexaen-8-yl]acetamide], the IC50 at system Xc^− [1] and at system Xc^− [2] was < 15.8 nM in each case.

For the compound `Cc1cc2c(c(F)n1)-c1cccc(CO)c1CC(=O)N2CC(=O)Nc1ccc(C(F)(F)F)cc1` [#165, 2-[1-fluoro-8-(hydroxymethyl)-3-methyl-6-oxo-7H-pyrido[4,3-d][3]benzazepin-5-yl]-N-[4-(trifluoromethyl)phenyl]acetamide], the IC50 at system Xc^− [1] and on system Xc^− [2] was 100 to 501 nM in each case.

Regarding `CC1C(=O)N(CC(=O)Nc2ccc(C(F)F)cc2)c2cc(N3CC(F)(F)C3)nc(F)c2-c2ccc(F)cc21` (single isomer, unassigned) [#291, 2-[3-(3,3-difluoroazetidin-1-yl)-1,9-difluoro-7-methyl-6-oxo-7H-pyrido[4,3-d][3]benzazepin-5-yl]-N-[4-(difluoromethyl)phenyl]acetamide], the values for the IC50 at system Xc^− [1] and at system Xc^− [2] were 15.8 to 39.8 nM and < 15.8 nM, respectively.

As for `Cc1cc2c(c(Cl)n1)-c1cccnc1C(F)C(=O)N2CC(=O)Nc1ccc(C(F)F)cc1` (single isomer, unassigned) [#223, Enantiomer (10R) or (10S) of 2-[3-chloro-10-fluoro-5-methyl-9-oxo-4,8,12-triazatricyclo[9.4.0.0^2,7]pentadeca-1(11),2(7),3,5,12,14-hexaen-8-yl]-N-[4-(difluoromethyl)phenyl]acetamide], the IC50 on system Xc^− [1] is 15.8 to 39.8 nM; on system Xc^− [2], < 15.8 nM.
